# Data as given in PMC2901058 (The Journal of Experimental Medicine, 2010).
# System: JurkatCD8-TK3^WT, JurkatCD8-TK3^Gln55His, and JurkatCD8-TK3^Gln55Ala cell lines
# Assay: CD69 up-regulation by peptide on C1R-HLA-B*3501 APCs, JurkatCD8-TK3 lines
# Format: cell-based, human
# Settings: dose–response, peptide presented on C1R–HLA-B*3501; not depicted
sequence,measurement,value
HPVGEADYFEY,"CD69 up-regulation, comparison between cell lines",no significant differences in CD69 up-regulation
